Assay results: ChEMBL document CHEMBL3885861, “Open TG-GATES”

Species on record: Rattus norvegicus
Assay: Open TG-GATES - Regimen: Daily Repeat
Format: toxicity, organism-based, Sprague-Dawley
Parameters: regimen Daily Repeat, gender Male, age 6 weeks
Conditions: in vivo, po, 15 mg/kg, route gavage, dose level High; for APTT / Bas / Eos / Fbg / Hb / Ht / Lym / MCH / MCHC / MCV / Mono / Neu / PT / Plat / RBC / Ret / WBC: tissue Blood; for KIDNEY_L / KIDNEY_R / KIDNEY_TOTAL: tissue Kidney; for LIVER: tissue Liver; for ALP / ALT / AST / BUN / CRE / Ca / Cl / DBIL / GLC / IP / K / LDH / Na / PL / RALB / TBIL / TC / TG / TP / gamma-GTP: tissue Plasma

## O=P1(N(CCCl)CCCl)NCCCO1 (stereo not drawn) [CYCLOPHOSPHAMIDE ANHYDROUS]
72 h, time 3 day
  TERMINAL_BW: 216.4 g
  APTT: 19.7 s
  Bas: 0%
  Eos: 1%
  Fbg: 279.6 mg/dL
  Hb: 12.9 g/dL
  Ht: 38.7%
  Lym: 73.8%
  MCH: 21.8 pg
  MCHC: 33.3%
  MCV: 65.5 fL
  Mono: 1.4%
  Neu: 23.8%
  PT: 16.8 s
  Plat: 121.4 x10_4/uL
  RBC: 590.2 x10_4/ul
  Ret: 1.6%
  WBC: 25.1 x10_2/uL
  KIDNEY_L: 1 g
  KIDNEY_R: 1 g
  KIDNEY_TOTAL: 1.9 g
  LIVER: 10.1 g
  ALP: 1493.4 IU/L
  ALT: 36.8 IU/L
  AST: 65.2 IU/L
  BUN: 16.4 mg/dL
  CRE: 0.2 mg/dL
  Ca: 10.6 mg/dL
  Cl: 106.4 meq/L
  DBIL: 0 mg/dL
  GLC: 187.6 mg/dL
  IP: 7.8 mg/dL
  K: 3.9 meq/L
  LDH: 169.2 IU/L
  Na: 142.6 meq/L
  PL: 148.2 mg/dL
  RALB: 2.9 g/dL
  TBIL: 0.008 mg/dL
  TC: 78.8 mg/dL
  TG: 95 mg/dL
  TP: 5.5 g/dL
  gamma-GTP: 1 IU/L
[…], time 7 day
  TERMINAL_BW: 231.7 g
  APTT: 22.1 s
  Bas: 0%
  Eos: 1%
  Fbg: 277.2 mg/dL
  Hb: 13.1 g/dL
  Ht: 38.8%
  Lym: 77%
  MCH: 21 pg
  MCHC: 33.6%
  MCV: 62.5 fL
  Mono: 1.2%
  Neu: 20.4%
  PT: 15.2 s
  Plat: 81.8 x10_4/uL
  RBC: 622 x10_4/ul
  Ret: 2.8%
  WBC: 12.8 x10_2/uL
  KIDNEY_L: 0.9 g
  KIDNEY_R: 1 g
  KIDNEY_TOTAL: 1.9 g
  LIVER: 10.9 g
  ALP: 1013 IU/L
  ALT: 32.2 IU/L
  AST: 59 IU/L
  BUN: 16.6 mg/dL
  CRE: 0.2 mg/dL
  Ca: 10.8 mg/dL
  Cl: 106.8 meq/L
  DBIL: 0 mg/dL
  GLC: 178.8 mg/dL
  IP: 6.5 mg/dL
  K: 4.1 meq/L
  LDH: 200 IU/L
  Na: 143 meq/L
  PL: 144.8 mg/dL
  RALB: 2.8 g/dL
  TBIL: 0.018 mg/dL
  TC: 71.2 mg/dL
  TG: 139.6 mg/dL
  TP: 5.4 g/dL
  gamma-GTP: 1 IU/L
[…], time 14 day
  TERMINAL_BW: 252.5 g
  APTT: 21 s
  Bas: 0%
  Eos: 0.8%
  Fbg: 278.4 mg/dL
  Hb: 12.8 g/dL
  Ht: 37.3%
  Lym: 63%
  MCH: 21.1 pg
  MCHC: 34.2%
  MCV: 61.8 fL
  Mono: 3%
  Neu: 32.2%
  PT: 14.1 s
  Plat: 107 x10_4/uL
  RBC: 604.8 x10_4/ul
  Ret: 2.3%
  WBC: 4.7 x10_2/uL
  KIDNEY_L: 1 g
  KIDNEY_R: 1 g
  KIDNEY_TOTAL: 2.1 g
  LIVER: 11.4 g
  ALP: 573.6 IU/L
  ALT: 19.8 IU/L
  AST: 40.8 IU/L
  BUN: 18.6 mg/dL
  CRE: 0.2 mg/dL
  Ca: 10.4 mg/dL
  Cl: 109.8 meq/L
  DBIL: 0.002 mg/dL
  GLC: 175.6 mg/dL
  IP: 6.2 mg/dL
  K: 4.2 meq/L
  LDH: 136 IU/L
  Na: 143.4 meq/L
  PL: 146 mg/dL
  RALB: 2.8 g/dL
  TBIL: 0.016 mg/dL
  TC: 73.6 mg/dL
  TG: 142.4 mg/dL
  TP: 5.4 g/dL
  gamma-GTP: 1.2 IU/L
[…], time 28 day
  TERMINAL_BW: 239.3 g
  APTT: 20.4 s
  Bas: 0%
  Eos: 2%
  Fbg: 277.6 mg/dL
  Hb: 9.3 g/dL
  Ht: 27.9%
  Lym: 20.8%
  MCH: 20.7 pg
  MCHC: 33.5%
  MCV: 62 fL
  Mono: 3.8%
  Neu: 69.2%
  PT: 17.7 s
  Plat: 79.2 x10_4/uL
  RBC: 448 x10_4/ul
  Ret: 8.3%
  WBC: 17.2 x10_2/uL
  KIDNEY_L: 1.1 g
  KIDNEY_R: 1.1 g
  KIDNEY_TOTAL: 2.1 g
  LIVER: 9.6 g
  ALP: 471.2 IU/L
  ALT: 35.8 IU/L
  AST: 104.8 IU/L
  BUN: 30 mg/dL
  CRE: 0.2 mg/dL
  Ca: 9.7 mg/dL
  Cl: 114.2 meq/L
  DBIL: 0.05 mg/dL
  GLC: 165.6 mg/dL
  IP: 7.3 mg/dL
  K: 3.9 meq/L
  LDH: 516.4 IU/L
  Na: 145.8 meq/L
  PL: 122 mg/dL
  RALB: 2.6 g/dL
  TBIL: 0.1 mg/dL
  TC: 69.6 mg/dL
  TG: 74.4 mg/dL
  TP: 5.1 g/dL
  gamma-GTP: 1.6 IU/L
